Measurements: patent publication US8138184B2, “Isoxazole derivatives and pharmaceutical compositions comprising the same” (Kaohsiung Medical University, priority 2008, dated 2012)

Legend:
[1] = test system: MCF-7 cells (human breast adenocarcinoma); test: Cytotoxicity assay (MTS reduction), MCF-7; assay type: cell-based; conditions: for activity at 4 µg/mL / activity at 20 µg/mL: Homo sapiens, MCF7, 72 h, 3 days, % of DMSO control, read-out: Growth percentage MCF7 (Breast); for activity at 4 µg/mL / inhibition of growth of MCF7 (in words): 4 μg/mL; for activity at 20 µg/mL: 20 μg/mL
Method: (§1) MCF-7 cells (human breast adenocarcinoma), NCI-H460 cells (non-small-cell lung cancer) and SF-268cells (glioblastoma cells) were cultured in a Dulbecco's modified Eagle's medium supplemented with a 10% fetal calf serum and a nonessential amino acid (Life Technologies, Inc.) and maintained at 37° C. in a humidified incubator with 5% CO2.
(§2) Human cancer cells were seeded in 96-well microtiter plates at a density of 6500, 2500 and 7500 cells/well in 100 μl of culture medium for MCF-7, NCI-H460, and SF-268, respectively. […] Cells were treated with test compounds for 3 days. Cell viability was determined by the 5-[3-(carboxymethoxy)-phenyl]-2-(4,5-dimethylthiazolyl)-3-(4-sulfophenyl)tetrazolium salt (MTS) reduction assay. Actinomycin D (10 μM, final concentration) and DMSO (0.1%, final concentration) were used as positive and vehicle controls, respectively. Results were expressed as a % of the DMSO control.

[2] = test system: Human adipose tissue derived stem cells (hADSCs); test: Cytotoxicity assay by lactate dehydrogenase (LDH) leakage in hADSCs; assay type: cell-based; conditions: 10 μM, % of total cell toxicity
Method: (§3) Human adipose tissue derived stem cells (hADSCs), which is derived from adipose tissue, were selected an maintained in a keratinocyte SFM medium (Gibco BRL, Gaithersburg, Md.) supplemented with 5% FBS, 100 U/ml of penicillin and streptomycin.
(§4) New synthetic compounds were dissolved in DMSO to a final concentration of 10 mM and stored at −20° C. The concentration used was 10 μM and freshly diluted to the medium with a final concentration of DMSO at 0.1%. Control cultures were treated with the same amount of DMSO as used in the corresponding experiments.
Lactate dehydrogenase (LDH) leakage from cells was measured to quantify the cytotoxicity by using a cytotoxicity detection kit (Roche, Germany) (Crowston, J. G. et al Invest. Ophthalmol. Vis. Sci. 1998, 39, 449). Cells were previously seeded into 48-well plates (4×10^4 cells/well). After a drug treatment, the supernatants and cell layers of the cultures were collected for assay. According to the manufacturer's guidelines for the detection kit, cell layers were lysed with 1% TritonX-100, and cell lysates and supernatants were assayed in a 96-well plate, respectively. Briefly, 100 μL of catalyst solution was added in each assay well for 20 min. Absorbance was measured with an ELISA reader with a 490 nm filter. LDH leakage was shown as relative activity (% of total cell toxicity).

[3] = test system: SF-268 cells (glioblastoma cells); test: Cytotoxicity assay (MTS reduction), SF-268; assay type: cell-based, human; conditions: for activity at 4 µg/mL / activity at 20 µg/mL: Homo sapiens, SF-268, 72 h, 3 days, % of DMSO control, read-out: Growth percentage SF-268 (CNS); for activity at 4 µg/mL / inhibition of growth of SF-268 (in words): 4 μg/mL; for activity at 20 µg/mL: 20 μg/mL
Method: as §1, §2

[4] = Cell viability by MTT assay in hADSCs; assay type: cell-based, human; conditions: human, human adipose tissue derived stem cells (hADSCs), % of control
Method: as §3, §4
The MTT assay is a calorimetric assay based on the ability of the viable cells to reduce a soluble yellow tetrazolium salt to blue formazan crystals (Carmichael, J. et. el. Cancer Research 1987, 47, 936). After compound treatments, 350 μL of MTT solution ([…] in PBS) were added to each well and incubated for 4 hrs. DMSO was then added for another 0.5 hrs to thoroughly dissolve the dark blue crystals. The absorbance at 570 nm was measured with an ELISA reader. Inhibition of mitochondrial metabolism was shown as relative activity (% of control).

[5] = test system: NCI-H460 cells (non-small-cell lung cancer); test: Cytotoxicity assay (MTS reduction), NCI-H460; assay type: cell-based, human; conditions: for activity at 4 µg/mL / activity at 20 µg/mL: Homo sapiens, NCI-H460, 72 h, 3 days, % of DMSO control, read-out: Growth percentage NCI-H460 (Lung); for activity at 4 µg/mL / inhibition of growth of NCI-H460 (in words): 4 μg/mL; for activity at 20 µg/mL: 20 μg/mL
Method: as §1, §2

[6] = test system: Human adipose tissue derived stem cells (hADSCs); test: Osteogenic differentiation and quantification of mineralization (Alizarin red S) in hADSCs; assay type: cell-based; conditions: 10 μM
Method: as §3, §4
Osteogenic differentiation was induced by culturing cells in an osteo-induction medium (OIM, 10% FBS, 0.1 μM dexamethasone, 10 mM β-glycerophosphate, and L-Ascorbic 2 phosphate 100 μM in low glucose DMEM) for 7-14 days. The extracellular matrix calcification was estimated by using an Alizarin red S stain (Carl, A. et al Anal. Biochem. 2004, 329, 77). The Alizarin red S-stained mineral was quantified by the osteogenesis quantification kit (CHEMICON®).

SMILES | activity at 4 µg/mL [1] | activity at 20 µg/mL [1] | Cell cytotoxicity (3 days, LDH) [2] | activity at 4 µg/mL [3] | activity at 20 µg/mL [3] | viability at 3 days, 10 µM [4] | activity at 4 µg/mL [5] | activity at 20 µg/mL [5] | inhibition of growth of MCF7 (in words) [1] | inhibition of growth of SF-268 (in words) [3] | inhibition of growth of NCI-H460 (in words) [5] | osteoblast activity (mineralization in hADSCs), in words [6]
COc1ccc(-c2cnoc2-c2ccc(OCCCCCCN3CCNCC3)cc2O)cc1 [8a] | 7% | -1% | 0% | 68% | -2% | 64% | 29% | 0% |  |  |  | 
COc1ccc(-c2cnoc2-c2ccc(OC(C)C)cc2OCCCCCCN2CCCCC2)cc1 [5h, 5-{4-isopropoxy-2-[6-(piperidin-1-yl)hexyloxy]phenyl}-4-(4-methoxyphenyl)isoxazole] | 13% | -3% | 0% | 4% | -1% | 57% | 2% | -1% | significantly inhibit the growth | significantly inhibit the growth | significantly inhibit the growth | 
COc1ccc(-c2cnoc2-c2ccc(OC(C)C)cc2OCCCCCCN2CCOCC2)cc1 [5f, 4-{6-{5-Isopropoxy-2-[4-(4-methoxyphenyl)isoxazol-5-yl]phenoxy}hexyl}morpholine] | 44% | -1% | 17% | 38% | 1% | 53% | 17% | 0% |  |  |  | 
COc1ccc(-c2cnoc2-c2ccc(OC(C)C)cc2OCCCCCCCN2CCOCC2)cc1 [5j, 4-{7-{5-isopropoxy-2-[4-(4-methoxyphenyl)isoxazol-5-yl]phenoxy}heptyl}morpholine] | 25% | 1% | 12% | 32% | 2% | 54% | 10% | 0% |  |  |  | 
COc1ccc(-c2cnoc2-c2ccc(OC(C)C)cc2OCCCCCCCN2CCCCC2)cc1 [5l, 5-{4-Isopropoxy-2-[7-(piperidin-1-yl)heptyloxy]phenyl}-4-(4-methoxyphenyl)isoxazole] | 29% | 1% | 0% | 25% | 2% | 58% | 8% | 1% |  |  |  | 
COc1ccc(-c2cnoc2-c2ccc(OC(C)C)cc2OCCCCN2CCOCC2)cc1 [5b, 4-{4-{5-Isopropoxy-2-[4-(4-methoxyphenyl)isoxazol-5-yl]phenoxy}butyl}morpholine] | 63% | 4% | 13% | 58% | 3% | 58% | 52% | 1% |  |  |  | 
COc1ccc(-c2cnoc2-c2ccc(OC(C)C)cc2OCCCCN2CCCC2)cc1 [5a, 5-{4-Isopropoxy-2-[4-(pyrrolidin-1-yl)butoxy]phenyl}-4-(4-methoxyphenyl)isoxazole] | 83% | 1% | 0% | 121% | 2% | 71% | 81% | 1% |  |  |  | more active than ipriflavone
COc1ccc(-c2cnoc2-c2ccc(OC(C)C)cc2OCCCCCCCN2CCCC2)cc1 [5i, 5-{4-Isopropoxy-2-[7-(pyrrolidin-1-yl)heptyloxy]phenyl}-4-(4-methoxyphenyl)isoxazole] | 32% | 2% | 0% | 30% | 2% | 63% | 11% | 1% |  |  |  | 
COc1ccc(-c2cnoc2-c2ccc(OC(C)C)cc2OCCCCCCN2CCNCC2)cc1 [5g, 5-{4-Isopropoxy-2-[6-(piperazin-1-yl)hexyloxy]phenyl}-4-(4-methoxyphenyl)isoxazole] | 14% | -3% | 0% | 20% | -1% | 60% | 0% | -1% | significantly inhibit the growth | significantly inhibit the growth | significantly inhibit the growth | 
COc1ccc(-c2cnoc2-c2ccc(OC(C)C)cc2OCCCCN2CCCCC2)cc1 [5d, 5-{4-Isopropoxy-2-[4-(piperidin-1-yl)butoxy]phenyl}-4-(4-methoxyphenyl)isoxazole] | 90% | 1% | 0% | 119% | 2% | 78% | 68% | 1% |  |  |  | 
CC(C)Oc1ccc2c(=O)c(-c3ccccc3)coc2c1 [Ipriflavone, reference compound] |  |  | 0% |  |  | 77% |  |  |  |  |  | 
COc1ccc(-c2cnoc2-c2ccc(OC(C)C)cc2O)cc1 [compound 3, 5-Isopropoxy-2-[4-(4-methoxyphenyl)isoxazol-5-yl]phenol] |  |  | 68% |  |  | 6% |  |  |  |  |  | 
COc1ccc(-c2cnoc2-c2ccc(OC(C)C)cc2OCCCCCCCN2CCNCC2)cc1 [5k] | 1% | 1% | 0% | 3% | 1% | 68% | 0% | 1% |  |  |  | 
COc1ccc(-c2cnoc2-c2ccc(OC(C)C)cc2OCCCCN2CCNCC2)cc1 [5c, 5-{4-Isopropoxy-2-[4-(piperazin-1-yl)butoxy]phenyl}-4-(4-methoxyphenyl)isoxazole] | 7% | -1% | 33% | 68% | -2% | 86% | 29% | 0% |  |  |  | 
COc1ccc(-c2cnoc2-c2ccc(OC(C)C)cc2OCCCCCCN2CCCC2)cc1 [5e, 5-{4-Isopropoxy-2-[6-(pyrrolidin-1-yl)hexyloxy]phenyl}-4-(4-methoxyphenyl)isoxazole] | 55% | 0% | 0% | 38% | 1% | 64% | 22% | 1% |  |  |  | more active than ipriflavone
